#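 Each compound was tested at five concentrations against cells in 96-well plates for 48 hours. GI50: concentration for 50% inhibition of growth. At the TGI there is no net growth.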
# Assays:
# Assay in all cases: DTP human tumour cell line panel, 48 h
# [1] = tested on: DU-145 prostate
# [2] = tested on: NCI-H226 lung
# [3] = tested on: NCI-H23 lung
# [4] = tested on: HCC-2998 colon
# [5] = tested on: HT29 colon
# [6] = tested on: MOLT-4 leukemia
# [7] = tested on: HCT-116 colon
# [8] = tested on: RPMI-8226 leukemia
# [9] = tested on: U251 CNS
# [10] = tested on: LOX IMVI melanoma
# [11] = tested on: NCI-H460 lung
# [12] = tested on: MALME-3M melanoma
# [13] = tested on: A498 renal
# [14] = tested on: OVCAR-4 ovarian
# [15] = tested on: K-562 leukemia
# [16] = tested on: HOP-92 NSCLC
# [17] = tested on: UO-31 renal
# [18] = tested on: TK-10 renal
# [19] = tested on: ACHN renal
# [20] = tested on: PC-3 prostate
# [21] = tested on: HS 578T breast
# [22] = tested on: SK-MEL-5 melanoma
# [23] = tested on: COLO 205 colon
# [24] = tested on: SR leukemia
# [25] = tested on: UACC-62 melanoma
# [26] = tested on: M14 melanoma
# [27] = tested on: SK-OV-3 ovarian
# [28] = tested on: T-47D breast
# [29] = tested on: SF-539 CNS
# [30] = tested on: OVCAR-8 ovarian
# [31] = tested on: CCRF-CEM leukemia
# [32] = tested on: MDA-MB-435
# [33] = tested on: BT-549 breast
# [34] = tested on: 786-0 renal
# [35] = tested on: IGROV1 ovarian
# [36] = tested on: CAKI-1 renal
# [37] = tested on: KM12 colon
# [38] = tested on: SN12C renal
# [39] = tested on: HOP-62 NSCLC
# [40] = tested on: UACC-257 melanoma
# [41] = tested on: A549 NSCLC
# [42] = tested on: HL-60(TB) leukemia
# [43] = tested on: NCI-H522 lung
# [44] = tested on: SF-268 CNS
# [45] = tested on: RXF 393 renal
# [46] = tested on: OVCAR-3 ovarian
# [47] = tested on: SNB-75 CNS
# [48] = tested on: SW-620 colon
# [49] = tested on: SK-MEL-2 melanoma
# [50] = tested on: NCI/ADR-RES ovarian
# [51] = tested on: SK-MEL-28 melanoma
# [52] = tested on: MCF7 breast
# [53] = tested on: EKVX NSCLC
# [54] = tested on: MDA-MB-231 breast
# [55] = tested on: SNB-19 CNS
# [56] = tested on: SF-295 CNS
# [57] = tested on: HCT-15 colon
# [58] = tested on: OVCAR-5 ovarian
smiles,measurement,setting,value
CC1(C)OC2=C(CC1Br)C(=O)C(=O)c1ccccc12 (centres undefined),GI50,[1],1.67 µM
same,TGI,[1],3.05 µM
same,GI50,[2],1.7 µM
same,TGI,[2],3.12 µM
same,GI50,[3],1.66 µM
same,TGI,[3],3.75 µM
same,GI50,[4],1.69 µM
same,TGI,[4],3.12 µM
same,GI50,[5],2.4 µM
same,TGI,[5],5.25 µM
same,GI50,[6],2.27 µM
same,TGI,[6],5.26 µM
same,GI50,[7],1.7 µM
same,TGI,[7],3.41 µM
same,GI50,[8],2.65 µM
same,TGI,[8],6.82 µM
same,GI50,[9],1.87 µM
same,TGI,[9],3.87 µM
same,GI50,[10],1 µM
same,TGI,[10],3.39 µM
same,GI50,[11],2.08 µM
same,TGI,[11],3.96 µM
same,GI50,[12],1.8 µM
same,TGI,[12],3.52 µM
same,GI50,[13],1.43 µM
same,TGI,[13],3.07 µM
same,GI50,[14],1.67 µM
same,TGI,[14],3.03 µM
same,GI50,[15],2.23 µM
same,TGI,[15],4.89 µM
same,GI50,[16],2.33 µM
same,TGI,[16],3.97 µM
same,GI50,[17],1.35 µM
same,TGI,[17],2.76 µM
same,GI50,[18],1.99 µM
same,TGI,[18],3.45 µM
same,GI50,[19],2.03 µM
same,TGI,[19],3.84 µM
same,GI50,[20],2.13 µM
same,TGI,[20],4.95 µM
same,GI50,[21],2.65 µM
same,TGI,[21],7.69 µM
same,GI50,[22],1.53 µM
same,TGI,[22],2.89 µM
same,GI50,[23],1.89 µM
same,TGI,[23],3.39 µM
same,GI50,[24],3.97 µM
same,TGI,[24],7.44 µM
same,GI50,[25],2.08 µM
same,TGI,[25],3.98 µM
same,GI50,[26],1.9 µM
same,TGI,[26],3.64 µM
same,GI50,[27],1.96 µM
same,TGI,[27],3.47 µM
same,GI50,[28],2.03 µM
same,TGI,[28],4.72 µM
same,GI50,[29],1.82 µM
same,TGI,[29],3.37 µM
same,GI50,[30],2.02 µM
same,TGI,[30],3.89 µM
same,GI50,[31],3.56 µM
same,TGI,[31],> 100 µM
same,GI50,[32],1.69 µM
same,TGI,[32],3.35 µM
same,GI50,[33],1.85 µM
same,TGI,[33],3.34 µM
same,GI50,[34],1.91 µM
same,TGI,[34],3.43 µM
same,GI50,[35],2.18 µM
same,TGI,[35],4.12 µM
same,GI50,[36],1.66 µM
same,TGI,[36],3.15 µM
same,GI50,[37],1.75 µM
same,TGI,[37],3.19 µM
same,GI50,[38],1.84 µM
same,TGI,[38],3.75 µM
same,GI50,[39],1.99 µM
same,TGI,[39],3.62 µM
same,GI50,[40],1.76 µM
same,TGI,[40],3.27 µM
same,GI50,[41],2.41 µM
same,TGI,[41],4.87 µM
same,GI50,[42],1.8 µM
same,TGI,[42],4.57 µM
same,GI50,[43],1.62 µM
same,TGI,[43],3.03 µM
same,GI50,[44],1.75 µM
same,TGI,[44],3.32 µM
same,GI50,[45],1.9 µM
same,TGI,[45],3.33 µM
same,GI50,[46],1.6 µM
same,TGI,[46],2.98 µM
same,GI50,[47],1.82 µM
same,TGI,[47],3.26 µM
same,GI50,[48],1.91 µM
same,TGI,[48],3.49 µM
same,GI50,[49],1.65 µM
same,TGI,[49],3.57 µM
same,GI50,[50],2.26 µM
same,TGI,[50],5.22 µM
same,GI50,[51],1.82 µM
same,TGI,[51],3.24 µM
same,GI50,[52],1.68 µM
same,TGI,[52],3.74 µM
same,GI50,[53],1.71 µM
same,TGI,[53],3.47 µM
same,GI50,[54],2.35 µM
same,TGI,[54],6.42 µM
O=C1Nc2ccccc2C1(c1ccc(O)cc1)c1ccc(O)cc1,GI50,[1],21 µM
same,TGI,[1],54.3 µM
same,GI50,[2],12.8 µM
same,TGI,[2],59.7 µM
same,GI50,[3],1.23 µM
same,TGI,[3],37.8 µM
same,GI50,[4],1.99 µM
same,TGI,[4],27 µM
same,GI50,[5],29.3 µM
same,TGI,[5],> 90 µM
same,GI50,[6],26.6 µM
same,TGI,[6],98.1 µM
same,GI50,[7],14.5 µM
same,TGI,[7],31.6 µM
same,GI50,[8],25.8 µM
same,TGI,[8],70.9 µM
same,GI50,[9],24.2 µM
same,TGI,[9],63.5 µM
same,GI50,[10],5.97 µM
same,TGI,[10],35.9 µM
same,GI50,[11],18.5 µM
same,TGI,[11],37.9 µM
same,GI50,[12],28.5 µM
same,TGI,[12],92 µM
same,GI50,[13],17.8 µM
same,TGI,[13],47.1 µM
same,GI50,[14],0.103 µM
same,TGI,[14],0.961 µM
same,GI50,[15],29.2 µM
same,TGI,[15],> 100 µM
same,GI50,[16],2.42 µM
same,TGI,[16],21.2 µM
same,GI50,[17],23.7 µM
same,TGI,[17],> 89.1 µM
same,GI50,[18],0.536 µM
same,TGI,[18],39.6 µM
same,GI50,[19],17.9 µM
same,TGI,[19],> 100 µM
same,GI50,[20],2.71 µM
same,TGI,[20],75 µM
same,GI50,[55],34.3 µM
same,TGI,[55],> 97 µM
same,GI50,[21],0.0932 µM
same,TGI,[21],0.298 µM
same,GI50,[22],14.7 µM
same,TGI,[22],29.3 µM
same,GI50,[23],0.125 µM
same,TGI,[23],4.38 µM
same,GI50,[56],16.2 µM
same,TGI,[56],49.4 µM
same,GI50,[57],19.2 µM
same,TGI,[57],> 100 µM
same,GI50,[24],32.9 µM
same,TGI,[24],> 96.3 µM
same,GI50,[25],19.2 µM
same,TGI,[25],43.8 µM
same,GI50,[26],20.1 µM
same,TGI,[26],49.3 µM
same,GI50,[27],22.8 µM
same,TGI,[27],54.2 µM
same,GI50,[28],0.0474 µM
same,TGI,[28],0.245 µM
same,GI50,[29],18.5 µM
same,TGI,[29],40.2 µM
same,GI50,[30],0.273 µM
same,TGI,[30],77.5 µM
same,GI50,[31],32.7 µM
same,TGI,[31],99.8 µM
same,GI50,[32],23 µM
same,TGI,[32],71.3 µM
same,GI50,[33],0.0625 µM
same,TGI,[33],0.541 µM
same,GI50,[34],26.7 µM
same,TGI,[34],75.9 µM
same,GI50,[58],25.6 µM
same,TGI,[58],81.5 µM
same,GI50,[35],10.2 µM
same,TGI,[35],39.3 µM
same,GI50,[36],22.7 µM
same,TGI,[36],81.3 µM
same,GI50,[37],12.1 µM
same,TGI,[37],28.4 µM
same,GI50,[38],0.312 µM
same,TGI,[38],50.6 µM
same,GI50,[39],20.5 µM
same,TGI,[39],53.1 µM
same,GI50,[40],25.3 µM
same,TGI,[40],62 µM
same,GI50,[41],27.9 µM
same,TGI,[41],> 96.7 µM
same,GI50,[42],22.9 µM
same,TGI,[42],63 µM
same,GI50,[43],17.2 µM
same,TGI,[43],43.4 µM
same,GI50,[44],24.4 µM
same,TGI,[44],77.9 µM
same,GI50,[45],0.445 µM
same,TGI,[45],13.4 µM
same,GI50,[46],0.11 µM
same,TGI,[46],0.899 µM
same,GI50,[47],12.7 µM
same,TGI,[47],38 µM
same,GI50,[48],26.2 µM
same,TGI,[48],83 µM
same,GI50,[49],22.9 µM
same,TGI,[49],50.6 µM
same,GI50,[50],0.982 µM
same,TGI,[50],> 100 µM
same,GI50,[51],26.9 µM
same,TGI,[51],65.7 µM
same,GI50,[52],0.378 µM
same,TGI,[52],27.8 µM
same,GI50,[53],14.5 µM
same,TGI,[53],90 µM
same,GI50,[54],20.3 µM
same,TGI,[54],48.7 µM
